From patent US20250346584A1, “NOVEL KAPPA OPIOID LIGANDS” (The Scripps Research Institute, priority 2012, published 2025)

What follows are molecules tested against kappa opioid receptor (OPRK1) (Homo sapiens (Human), UniProt P41145) (assay: OPRK1 antagonist assay (b-arrestin-2-TEV / b-lactamase reporter cell line, EC80 U-50488 challenge)). Conditions: read-out: IC50 nM (% inhib if other than 50%); antagonist mode vs EC80 U-50488; NA = not active at concentrations up to 10 μM.
Format: cell-based

Sequence of kappa opioid receptor (OPRK1) (P41145 whole entry): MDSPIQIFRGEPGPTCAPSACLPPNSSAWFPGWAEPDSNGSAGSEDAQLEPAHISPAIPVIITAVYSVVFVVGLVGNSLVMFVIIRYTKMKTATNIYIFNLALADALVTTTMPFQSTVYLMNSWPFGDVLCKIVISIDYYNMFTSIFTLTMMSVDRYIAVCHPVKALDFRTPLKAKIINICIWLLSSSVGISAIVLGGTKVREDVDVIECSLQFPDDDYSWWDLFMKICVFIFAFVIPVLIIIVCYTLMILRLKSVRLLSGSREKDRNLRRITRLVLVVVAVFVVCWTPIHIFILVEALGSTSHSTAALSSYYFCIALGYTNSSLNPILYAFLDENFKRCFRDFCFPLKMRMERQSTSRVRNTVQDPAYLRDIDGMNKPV

Row | IC50 [nM] | SMILES
1 | 1400 | COC(=O)c1cc(C)c(C)nc1N1CCC(NC2CCCCC2)C(CO)C1 (stereo not drawn) [compound 162]
2 | 915 | COC(=O)c1cc(C)c(C)nc1N1CCC(NC2CCCCC2)C(OC)C1 (stereo not drawn) [compound 163]
3 | 62 | Cc1noc(-c2cc(C)c(C)nc2N2CCC(NC3CCCCC3)C(CO)C2)n1 (stereo not drawn) [compound 164]
4 | 19 | COC1CN(c2nc(C)c(C)cc2-c2nc(C)no2)CCC1NC1CCCCC1 (stereo not drawn) [compound 165]
5 | 7000 | CCc1noc(-c2cc(C)cnc2N2CC[C@@H](NC3CCCCC3)[C@H](O)C2)n1 [compound 168]
6 | 2500 | Cc1cnc(N2CC[C@@H](NC3CCCCC3)[C@H](O)C2)c(-c2ncco2)c1 [compound 169]
7 | 1100 | CCc1noc(-c2cc(C)cnc2N2CCC(NC3CCCCC3)C(CO)C2)n1 (stereo not drawn) [compound 171]
8 | 22 | Cc1noc(-c2cc3ccccc3nc2N2CC[C@@H](NC3CCCCC3)[C@H](O)C2)n1 [compound 172]
9 | 1200 | Cc1noc(-c2cc(C(F)(F)F)cnc2N2CC[C@@H](NC3CCCCC3)[C@H](O)C2)n1 [compound 173]
10 | 180 | COC1CN(c2ncc(C(F)(F)F)cc2-c2nc(C)no2)CCC1NC1CCCCC1 (stereo not drawn) [compound 174]
11 | 28 | COC1CN(c2nc3ccccc3cc2-c2nc(C)no2)CCC1NC1CCCCC1 (stereo not drawn) [compound 176]
12 | 483 | COC1CN(c2nc(C)c(C)cc2-c2nc(C)no2)CCC1NC1CCCCC1 (stereo not drawn) [compound 178]
13 | 253 | COC1CN(c2ncc(C)cc2-c2nc(C)no2)CCC1NC1CCCCC1 (stereo not drawn) [compound 179]
14 | 76 | CCC1(CO)CN(c2ncc(C)cc2-c2nc(C)no2)CCC1NC1CCCCC1 (stereo not drawn) [compound 182]
15 | 280 | CCC1CN(c2ncc(C)cc2-c2nc(C)no2)CCC1NC1CCCCC1 (stereo not drawn) [compound 183]
16 | 5 | Cc1noc(-c2cc3ccccc3nc2N2CCC(NC3CCCCC3)C(CO)C2)n1 (stereo not drawn) [compound 186]
17 | 341 | Cc1noc(-c2cc(C(F)(F)F)cnc2N2CCC(NC3CCCCC3)C(CO)C2)n1 (stereo not drawn) [compound 187]
18 | 187 | Cc1noc(-c2nc3ccccc3nc2N2CC[C@@H](NC3CCCCC3)[C@H](O)C2)n1 [compound 188]
19 | 125 | Cc1noc(-c2nc3ccccc3nc2N2CCC(NC3CCCCC3)C(CO)C2)n1 (stereo not drawn) [compound 189]
20 | 57 | COC1CN(c2nc3ccccc3nc2-c2nc(C)no2)CCC1NC1CCCCC1 (stereo not drawn) [compound 190]
21 | 420 | Cc1noc(-c2cc3c(nc2N2CCC(NC4CCCCC4)C(CO)C2)CCCC3)n1 (stereo not drawn) [compound 191]
22 | 199 | Cc1noc(-c2cc3ccccc3nc2N2CC[C@@H](NC3CCCCC3)[C@H](O)C2)n1 [compound 192]
23 | 729 | COC1CN(c2nc3c(cc2-c2nc(C)no2)CCCC3)CCC1NC1CCCCC1 (stereo not drawn) [compound 193]
24 | 180 | Cc1cnc(N2CCC(NC3CCCCC3)C(C)C2)c(-c2nc(C)no2)c1 (stereo not drawn) [compound 194]
25 | 700 | Cc1cnc(N2CCC(NC3CCOCC3)C(CO)C2)c(-c2nc(C)no2)c1 (stereo not drawn) [compound 195]
26 | 414 | COC1CCCCC1NC1CCN(c2ncc(C)cc2-c2nc(C)no2)CC1CO (stereo not drawn) [compound 196]
27 | 85 | Cc1cnc(N2CCC(NC3CCCCCC3)C(CO)C2)c(-c2nc(C)no2)c1 (stereo not drawn) [compound 197]

Row | IC50 [nM] | SMILES
28 | 98 | Cc1noc(-c2cc3ccccc3nc2N2CCC(NC3CCOCC3)C(CO)C2)n1 (stereo not drawn) [compound 198]
29 | 59 | COC1CCCCC1NC1CCN(c2nc3ccccc3cc2-c2nc(C)no2)CC1CO (stereo not drawn) [compound 199]
30 | 14 | Cc1noc(-c2cc3ccccc3nc2N2CCC(NC3CCCCCC3)C(CO)C2)n1 (stereo not drawn) [compound 200]
31 | 116 | Cc1cnc(N2CCC(NC3CCCC3)C(CO)C2)c(-c2nc(C)no2)c1 (stereo not drawn) [compound 201]
32 | 187 | Cc1noc(-c2nc3ccccc3nc2N2CCC(NC3CCCC3)C(CO)C2)n1 (stereo not drawn) [compound 202]
33 | 132 | Cc1cnc(N2CCC(NC3CCCCC3C)C(CO)C2)c(-c2nc(C)no2)c1 (stereo not drawn) [compound 203]
34 | 52 | Cc1noc(-c2cc3ccccc3nc2N2CCC(NC3CCCCC3)C(F)C2)n1 (stereo not drawn) [compound 204]
35 | 17 | Cc1noc(-c2cc3ccccc3nc2N2CCC(NC3CCCC3)C(CO)C2)n1 (stereo not drawn) [compound 205]
36 | 33 | Cc1noc(-c2cc3ccccc3nc2N2CCC(NC3CCCCC3C)C(CO)C2)n1 (stereo not drawn) [compound 206]
37 | 276 | Cc1noc(-c2cc3c(nc2N2CC[C@@H](NC4CCCCC4)[C@H](O)C2)CCC3)n1 [compound 207]
38 | 76 | CCC1(CO)CN(c2nc3ccccc3cc2-c2nc(C)no2)CCC1NC1CCCCC1 (stereo not drawn) [compound 208]
39 | 18 | Cc1noc(-c2cc3ccccc3nc2N2CCC(NC3CCCCC3)CC2)n1 [compound 209]
40 | 72 | COC1CN(c2nc3c(cc2-c2nc(C)no2)CCC3)CCC1NC1CCCCC1 (stereo not drawn) [compound 210]
41 | 74 | Cc1noc(-c2cc3c(nc2N2CCC(NC4CCCCC4)C(CO)C2)CCC3)n1 (stereo not drawn) [compound 211]
42 | 267 | Cc1noc(-c2cc3ccccc3nc2N2CCC(NC3CCCCC3)C2)n1 (stereo not drawn) [compound 212]
43 | 8.5 | Cc1ccc2nc(N3CC[C@@H](NC4CCCCC4)[C@H](O)C3)c(-c3nc(C)no3)cc2c1 [compound 213]
44 | 3 | COC1CN(c2nc3ccc(C)cc3cc2-c2nc(C)no2)CCC1NC1CCCCC1 (stereo not drawn) [compound 214]
45 | 3 | Cc1ccc2nc(N3CCC(NC4CCCCC4)C(CO)C3)c(-c3nc(C)no3)cc2c1 (stereo not drawn) [compound 215]
46 | 4500 | Cc1cnc(N2CCC(NC3CCCCC3)C(CO)C2)c(C=O)c1 (stereo not drawn) [compound 216]
47 | 361 | Cc1cnc(N2CCC(NC3CCCCC3)C(CO)C2)c(-c2ncco2)c1 (stereo not drawn) [compound 217]
48 | 475 | O[C@@H]1CN(c2nc3ccccc3cc2-c2ncco2)CC[C@H]1NC1CCCCC1 [compound 218]
49 | 3.5 | Cc1ccc2nc(N3CCC(NC4CCCCC4)CC3)c(-c3nc(C)no3)cc2c1 [compound 219]
50 | 24 | Cc1noc(-c2cc(C)c(C)nc2N2CCC(NC3CCCCC3)CC2)n1 [compound 221]
51 | 163 | Cc1noc(-c2cc3ccccc3nc2N2CCC(CO)(NC3CCCCC3)CC2)n1 [compound 222]
52 | 13 | Cc1noc(-c2cc(C)c(C)nc2N2CCC(NC3CCCC3)C(CO)C2)n1 (stereo not drawn) [compound 223]
53 | 17 | Cc1noc(-c2cc(C)c(C)nc2N2CCC(NC3CCCCC3C)C(CO)C2)n1 (stereo not drawn) [compound 224]
54 | 70 | COC1CN(c2nc3ccccc3cc2-c2ncco2)CCC1NC1CCCCC1 (stereo not drawn) [compound 225]

Row | IC50 [nM] | SMILES
55 | 107 | OCC1CN(c2nc3ccccc3cc2-c2ncco2)CCC1NC1CCCCC1 (stereo not drawn) [compound 226]
56 | 7 | Cc1ccc2cc(-c3nc(C)no3)c(N3CC[C@@H](NC4CCCCC4)[C@H](O)C3)nc2c1 [compound 227]
57 | 21 | COC1CN(c2nc3cc(C)ccc3cc2-c2nc(C)no2)CCC1NC1CCCCC1 (stereo not drawn) [compound 228]
58 | 5 | Cc1ccc2cc(-c3nc(C)no3)c(N3CCC(NC4CCCCC4)C(CO)C3)nc2c1 (stereo not drawn) [compound 229]
59 | 9 | Cc1noc(-c2cc3ccccc3nc2N2CCC(NC3CCCCC3O)CC2)n1 (stereo not drawn) [compound 230]
60 | 8 | Cc1noc(-c2cc3ccccc3nc2N2CCC(NC3CCOCC3)CC2)n1 [compound 232]
61 | 596 | Cc1noc(-c2cc3ccccc3nc2N2CC(NC3CCCCC3)C2)n1 [compound 234]
62 | 4 | Cc1noc(-c2cc3ccccc3nc2N2CCC(NC3CCCOC3)CC2)n1 (stereo not drawn) [compound 235]
63 | 20 | Cc1noc(-c2cc3ccccc3nc2N2CCC(NC3CCOC3)CC2)n1 (stereo not drawn) [compound 236]
64 | 8 | CCC(CC)NC1CCN(c2nc3ccccc3cc2-c2nc(C)no2)CC1 [compound 237]
65 | 38 | Cc1noc(-c2cc3cc(Cl)ccc3nc2N2CC[C@@H](NC3CCCCC3)[C@H](O)C2)n1 [compound 238]
66 | 16 | Cc1noc(-c2cc3cc(Cl)ccc3nc2N2CCC(NC3CCCCC3)C(CO)C2)n1 (stereo not drawn) [compound 239]
67 | 14 | COC1CN(c2nc3ccc(Cl)cc3cc2-c2nc(C)no2)CCC1NC1CCCCC1 (stereo not drawn) [compound 240]
68 | 59 | Cc1noc(-c2cc3cc(F)ccc3nc2N2CC[C@@H](NC3CCCCC3)[C@H](O)C2)n1 [compound 241]
69 | 22 | Cc1noc(-c2cc3cc(F)ccc3nc2N2CCC(NC3CCCCC3)C(CO)C2)n1 (stereo not drawn) [compound 243]
70 | 566 | Cc1cnc(N2CC[C@@H](NC3CCCCC3)[C@H](O)C2)c(-c2ncccn2)c1 [compound 244]
71 | 79 | Cc1cnc(N2CCC(NC3CCCCC3)C(CO)C2)c(-c2ncccn2)c1 (stereo not drawn) [compound 245]
72 | 51 | Cc1ccc2nc(N3CCC(NC4CCC(O)CC4)CC3)c(-c3nc(C)no3)cc2c1 (stereo not drawn) [compound 246]
73 | 4 | Cc1ccc2nc(N3CCC(NC4CCCOC4)CC3)c(-c3nc(C)no3)cc2c1 (stereo not drawn) [compound 247]
74 | 9 | COC1CN(c2nc3ccc(C)cc3cc2-c2nc(C)no2)CCC1NC1CCCCC1F (stereo not drawn) [compound 249]
75 | 8 | Cc1ccc2nc(N3CCC(NC4CCCCC4F)CC3)c(-c3nc(C)no3)cc2c1 (stereo not drawn) [compound 250]
76 | 11 | Cc1noc(-c2cc3c(F)cccc3nc2N2CC[C@@H](NC3CCCCC3)[C@H](O)C2)n1 [compound 251]
77 | 12 | COC1CN(c2nc3cccc(F)c3cc2-c2nc(C)no2)CCC1NC1CCCCC1 (stereo not drawn) [compound 252]
78 | 10 | Cc1noc(-c2cc3c(F)cccc3nc2N2CCC(NC3CCCCC3)C(CO)C2)n1 (stereo not drawn) [compound 253]
79 | 8 | Cc1ccc2nc(N3CCC(NC4CCOC4)CC3)c(-c3nc(C)no3)cc2c1 (stereo not drawn) [compound 254]

Row | SMILES | IC50 [nM]
80 | COC(=O)c1cc(C)nnc1N1CC[C@@H](NC2CCCCC2)[C@H](O)C1 [compound 166] | 32
81 | Cc1cc(-c2nc(C)no2)c(N2CC[C@@H](NC3CCCCC3)[C@H](O)C2)nn1 [compound 175] | 46
82 | Cc1noc(-c2cnc(N3CC[C@@H](NC4CCCCC4)[C@H](O)C3)c(C)c2)n1 [compound 177] | > 20
83 | Cc1cc(-c2nc(C)no2)c(N2CCC(NC3CCCCC3)C(CO)C2)nn1 (stereo not drawn) [compound 180] | 7
84 | COC1CN(c2nc3ccc(F)cc3cc2-c2nc(C)no2)CCC1NC1CCCCC1 (stereo not drawn) [compound 242] | 26
